Entries after “also recorded” stand apart in the source; their conditions may differ.
What was measured:
[1] = test system: mice (C57Bl/6 black); experiment: Two-bottle preference test; assay type: in vivo, mouse; conditions: for preference versus control solution (xanthan gum) / effect on palatability of a sucrose-containing solution / preferred (optimal) concentration in two-bottle preference test: 12 h; for preference versus control solution (xanthan gum): 0.3% xanthan gum, test compound 10 to 200 μM or linoleic acid 0.2% (v/v); for ratio of LA preferred concentration to that of test compound: LA preferred at 7.13 mM or 0.2%; for effect on palatability of a sucrose-containing solution: sucrose versus sucrose plus test compound 50 μM; for preferred (optimal) concentration in two-bottle preference test: versus xanthan gum
Procedure: Eight weeks old, male mice (C57Bl/6 black) were purchased from the Janvier Elevage (Le Mans) and used for these experiments.
The mice are placed individually in cages in a controlled environment (humidity and constant temperature) and have free access to a standard diet. 6 hours before the tests, the mice are deprived of water.
During the behavioral experiments, the mice were offered two bottles simultaneously for 12 hours (night period).
The mice are subjected to a choice between the “control” solution and the experimental solution.
Experiment 1 (FIG. 5, FIG. 6A, FIG. 7) • control solutions contain 0.3% xanthan gum, w/v, (Sigma Life Science, USA) in water to reproduce lipid texture and minimize bias due to differences in appearance between the two bottles; • the experimental solution contains, in addition to xanthan gum, 0.3% (w/v), either the “test compound” according to the invention at a concentration varying from 10 to 200 μM (NKS-3, FIG. 6A or NKS-5, FIG. 7) or linoleic acid at 0.2% (v/v) (control test, FIG. 5). To avoid the preference for one side, the position of each bottle is changed during each test.
Experiment 2 (FIG. 6B and FIG. 8): gustatory properties • control solutions contain 2% of sucrose (w/v); • the experimental solution contains, in addition to sucrose (2% w/v), the “test compound” according to the invention (NKS-3, FIG. 6B or NKS-5, FIG. 8) at a concentration of 50 μM.
To estimate the consumption of control and experimental solutions, the bottles are weighed before and after each experiment. The mice are allowed to take rest for 48 hours between each experiment.

[2] = test system: mouse taste bud cells; experiment: Ca2+ signaling (Fura-2/AM, F340/F380) in mouse taste bud cells; assay type: cell-based; conditions: for EC50: 0 to 200 μM, Δ ratio F340/F380, n=6, read-out: EC50 of dose-dependent increases in [Ca2+]i
Procedure: Briefly, lingual epithelium was separated by enzymatic dissociation which contained the following: elastase and dispase mixture, 2 mg/ml each, in Tyrode's buffer (120 mM NaCl; 5 mM KCl; 10 mM HEPES ((4-(2-hydroxyethyl)-1-piperazineethanesulfonic acid); 1 mM CaCl2; 1 mM MgCl2; 10 mM glucose; 10 mM Na pyruvate, pH 7.4). The taste bud cells were isolated by incubating lingual epithelium in RPMI 1640 medium containing 2 mM EDTA, 1.2 mg/ml elastase, 0.6 mg/ml collagenase (type 1), and 0.6 mg/ml trypsin inhibitor at 37° C. for 10 minutes, followed by centrifugation (600 g, 10 minutes). The cell populations, after separation, were suspended in fresh RPMI 1640 medium containing 10% fetal calf serum, 200 U/ml penicillin, and 0.2 mg/ml streptomycin, seeded onto a Poly-D-Lysine-coated dishes, and cultured for 24 hours. At the end of this period, the cells were used for the experiments or stained with trypan blue to assess their viability.
(§1) The mouse taste bud cells were seeded in 24-well plates (with glass bottom), containing poly-D-lysine for better adhesion to the surface. After 24 h, taste cells were incubated for 45 minutes with a fluorescent probe, Fura-2/AM (1 μM) in calcium buffer (110 mM NaCl, 5.4 mM, KCl, 25 mM, NaHCO3, 0.8 mM, MgCl2, 0.4 mM, KH2PO4, 20 mM, Hepes-Na, 0.33 mM, NaHPO4, 1.2 mM, CaCl2, pH 7.4). Then, the cells are washed with phosphate buffer saline (PBS) and taken up in calcium buffer.
(§2) The changes in intracellular Ca^2+ (F340/F380) were monitored under a Nikon microscope (TiU) by using an S Fluor 40× oil immersion objective.
(§3) Especially, the increases in [Ca^2+ ]i were measured as follows: the mice taste bud cells were cultured on Willico-Dish wells with a glass bottom and loaded with a fluorescent probe, Fura-2/AM. The changes in intracellular Ca^2+ (F340/F380) were monitored under the Nikon microscope (TiU) by using S-fluor 40× oil immersion objective. The planes were taken at Z intervals of 0.3 μm, and NIS-Elements software was used to deconvolve the images. The microscope was equipped with EM-CCD (Lucas) camera for real time recording of 16-bit digital images. The dual excitation fluorescence imaging system was used for studies of individual cells. The changes in intracellular Ca^2+ were expressed as ΔRatio, which was calculated as the difference between the peak F340/F380 ratio. The data were summarized from the large number of individual cells (20-40 cells in a single run, with 3-9 identical experiments done in at least three cell preparations). The results were analyzed with the NIS-elements software, the variation in [Ca^2+]i is expressed as Δ ratio (F340/F380 which was calculated with the difference of spectra at two wavelengths, i.e., 340 nm and 380 nm.

[3] = target: T1, CD36 (Mus musculus, UniProt Q08857); experiment: Ca2+ signaling in mouse taste bud cells in presence or absence of CD36 inhibitor SSO; assay type: cell-based; conditions: for action of CD36 inhibitor SSO on the increase in [Ca2+]i: 20 μM SSO, mouse taste bud cells; for CD36 agonist character: judged from suppression by SSO
T1 construct: freshly isolated and primary cultured mice type II taste bud cells (expressing GPR120 and CD36) are used; endogenous in cells; host or cells: primary mouse taste bud cells from fungiform papillae
T1 sequence (Q08857 whole entry): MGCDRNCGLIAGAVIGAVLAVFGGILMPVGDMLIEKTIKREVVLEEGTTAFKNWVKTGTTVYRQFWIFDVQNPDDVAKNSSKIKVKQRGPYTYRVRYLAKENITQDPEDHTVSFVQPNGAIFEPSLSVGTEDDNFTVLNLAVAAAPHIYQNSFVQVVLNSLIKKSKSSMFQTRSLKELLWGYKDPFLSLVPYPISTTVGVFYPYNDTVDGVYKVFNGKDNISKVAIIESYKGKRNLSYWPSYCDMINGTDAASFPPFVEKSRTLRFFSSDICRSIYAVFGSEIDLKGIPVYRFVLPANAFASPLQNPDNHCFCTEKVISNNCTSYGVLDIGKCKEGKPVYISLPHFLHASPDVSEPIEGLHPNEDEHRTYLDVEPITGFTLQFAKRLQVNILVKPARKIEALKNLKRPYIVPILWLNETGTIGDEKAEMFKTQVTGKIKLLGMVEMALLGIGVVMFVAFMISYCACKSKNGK
Procedure: as §1, §2, §3
CD36: in order to assess if the linoleic acid derivatives according to the invention exert their actions via CD36, sulfo-N-succinimidyl oleate (SSO) was used. SSO is a CD36 inhibitor/blocker/antagonist.
Experiments were performed in the presence or absence of SSO with respect to calcium signaling to verify whether our analogs act well via this lipid receptor. Especially, for this assay, NKS-3, NKS-5 and linoleic acid (control) were tested.

[4] = test system: obese C57BL/6J mice; experiment: Blood biochemical parameters in diet-induced obese mice (ELISA, automatic analyzer); assay type: in vivo, mouse; conditions: obese animals
Procedure: (§4) C57BL/6J male mice, aged between 6 to 10 weeks (16-20 g), were obtained from Janvier Labs (France). They were housed individually in a controlled environment with a 12 h light/dark cycle with food (SAFE, France) and water ad libitum. The palm oil (Huilerie Vigean, France) was the main fat component in high-fat diets. The high-fat diet was prepared weekly and stored at 4° C. until further use. The study was conducted as per Declaration of Helsinki and European ethical guidelines for the care and use of animals for experimentation. All the experimental protocols (protocol number: 16158) were approved by the Regional Ethical Committee of the University of Burgundy (Dijon, France).
(§5) The mice were grouped at random (n=10/group) and fed with either of the following diets: standard diet (STD) or high-fat diet (HFD). The body weight, food, and water intake were measured, weekly.
(§6) After 10 weeks of feeding the diets, obese animals were divided into two groups: one groups continued to be fed on the same HFD; however, another group was fed on the same diet and received either NKS-3 or NKS-5) until 28th of weeks of experimentation. At the end, the animals were sacrificed, under a fasting condition, and used for different analysis in blood and different tissues.
The rat/mouse insulin ELISA kit was obtained from EMD Millipore (USA). ELISA kits for CCK, PYY and GLP-1 were purchased from Cloud-Clone Corp. (USA). The ALAT (Alanine Amino Transferase) was determined by an automatic analyzer (Gilford Model 2000 system, a Beckman System T.R).

[5] = test system: C57BL/6J mice; experiment: Liver histology in normal diet or HFD fed mice; assay type: in vivo, mouse; conditions: for liver steatosis in liver sections of obese mice: HFD
Procedure: as §4, §5, §6
The liver of the mice at the time of sacrifice were fixed in formaldehyde and then dehydrated by passaging into ethanoic media. The liver tissues were embedded into the paraffin and 5μ thick section were cut by the microtome as per standard procedures. The slides, containing tissues, were stained by hematoxylin and eosin dyes as per standard methods. The stained slides were observed under Zeiss light microscope at 10× or 20× magnifications.

[6] = test system: obese C57BL/6J mice; experiment: Diet-induced obesity, body weight; assay type: in vivo, mouse; conditions: for body weight in obese mice: HFD, analogues in feeder bottles from 10th to 28th week, NKS-5 75 μM, NKS-3 50 μM; for body weight of control animals: normal diet
Procedure: as §4, §5, §6
In order to elucidate the beneficial effects and especially during obesity, experiments were conducted on obese C57BL/6J mice. […] In order to test the curative/interventional effects on obesity, the animals were divided into two groups: one group that consume only the high-fat diet (HFD) and the other consuming the same diet and also receiving NKS-3 or NKS-5 in adlibitum baby bottles/feeders. From the 10th week of the diet, lipid analogues were introduced into the bottles at concentrations that corresponded to their preference in the double choice test (NKS-5 at 75 μM; NKS-3 at 50 μM). […] In addition, the decrease in obesity was maintained until the 28th week of feeding a HFD (FIGS. 13A and 13B).

[7] = target: T2, GPR120 (Mus musculus, UniProt Q7TMA4); experiment: Ca2+ signaling in mouse taste bud cells in presence or absence of GPR120 antagonist AH7614; assay type: cell-based; conditions: AH7614 20 μM, NKS-5 50 μM
T2 construct: freshly isolated and primary cultured mice type II taste bud cells (expressing GPR120 and CD36) are used; endogenous in cells; host or cells: primary mouse taste bud cells from fungiform papillae
T2 sequence (Q7TMA4 1-361): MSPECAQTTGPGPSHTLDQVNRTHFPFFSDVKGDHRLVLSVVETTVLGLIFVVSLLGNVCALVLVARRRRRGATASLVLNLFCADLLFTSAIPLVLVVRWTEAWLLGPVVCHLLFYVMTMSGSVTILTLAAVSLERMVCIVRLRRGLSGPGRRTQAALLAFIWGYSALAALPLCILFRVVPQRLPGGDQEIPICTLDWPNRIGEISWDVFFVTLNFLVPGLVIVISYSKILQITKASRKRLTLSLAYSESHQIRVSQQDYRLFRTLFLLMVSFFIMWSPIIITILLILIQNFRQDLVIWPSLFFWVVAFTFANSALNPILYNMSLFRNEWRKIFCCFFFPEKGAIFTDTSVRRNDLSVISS
Procedure: as §1, §2
as §3, with “The planes were taken at Z intervals of 0.3 μm, and NIS-Elements software was used to deconvolve the images. The microscope was equipped with EM-CCD (Lucas) camera for real time recording of 16-bit digital images.” left out, “The data were summarized from the large number of individual cells (20-40 cells in a single run, with 3-9 identical experiments done in at least three cell preparations).” left out, “nm. […]” for “nm.”

SMILES | preference versus control solution (xanthan gum) ([1]; mice) | concentration preferred in two-bottle preference test ([1]; mice, 7.13 mM or 0.2%) [mM] | increase in [Ca2+]i [2] | action of CD36 inhibitor SSO on the increase in [Ca2+]i ([3]; listed as LA) | ratio of LA preferred concentration to that of test compound [1] [times] | effect on palatability of a sucrose-containing solution ([1]; mice) | preferred (optimal) concentration in two-bottle preference test ([1]; mice) [µM] | blood concentration of ALAT [4] | circulating concentrations of IL-6 [4] | insulin concentrations [4] | liver steatosis in liver sections of obese mice [5] | liver histology, normal diet fed mice [5] | body weight in obese mice [6] | body weight of control animals [6] | EC50 [2] [µM] | action of CD36 inhibitor SSO on the increase in [Ca2+]i [3] | CD36 agonist character [3] | effect of GPR120 inhibitor AH7614 on the increase in [Ca2+]i [7]
CCCCC/C=C\C/C=C\CCCCCCCC(=O)O [Linoleic acid, linoleic acid] | strong preference | 7.13 | huge increase | completely blocked; also recorded: suppressed |  |  |  |  |  |  |  |  |  |  |  |  |  | 
CCCCC/C=C\C/C=C\CCCCCCCCP(=O)(OCC)OCC [NKS-3, diethyl (9Z,12Z)-octadeca-9,12-dien-1-ylphosphonate] | spontaneous preference |  | very rapid |  | 140 | failed to enhance the palatability | 50 | decreased | decrease | decreases | curative effects | did not exert any effect | significant decrease in body weight | no effect | 25 ± 0.01 | completely blocked; also recorded: completely suppressed | complete CD36 agonist | 
CCCCC/C=C\C/C=C\CCCCCCCC(=O)OCC1(C)COC1 [NKS-5, (9Z,12Z)-(3-methyloxetan-3-yl)methyl octadeca-9,12-dienoate] | spontaneous preference |  | very rapid |  | 93 | increases the palatability | 75 | decreased | decrease | decreases | curative effects | did not exert any effect | significant decrease in body weight | no effect | 30 ± 0.01 | partially inhibited; also recorded: curtailed, but not completely suppressed | partial agonist | significantly curtailed, but not suppressed
